Measurements: the supplement of paper PMC10883282
± gives the standard deviation of the averaged measurements.

What was measured:
Test in all cases: relative viability vs DMSO control (72 h) (fraction); higher = more viable cells
[1] = test system: A204
In short: (§1)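 After seeding at densities set for 80–90% confluence in 384-well plates, sarcoma cell lines waited 24 h before 2.5 µl of serially diluted compound was added. Source plates held 10 mM down to 0.0002 mM. Plates were incubated 72 h at 37 °C with 5% CO2, with 0.1% DMSO vehicle and a 5 µM positive control, and relative viability was taken from ATPLite as percent growth averaged over up to triplicate wells, with 1 set as full and 0 as none.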

[2] = test system: G401
In short: as §1

[3] = test system: HS729
In short: as §1

[4] = test system: KHOS-NP
In short: as §1

[5] = test system: MES-SA
In short: as §1

[6] = test system: RD
In short: as §1

[7] = test system: SK-ES-1
In short: as §1

[8] = test system: SK-LMS-1
In short: as §1

[9] = test system: SW684
In short: as §1

[10] = test system: SW872
In short: as §1

[11] = test system: SYO-1
In short: as §1

[12] = test system: VA-ES-BJ
In short: as §1

O=c1sn(-c2cccc3ccccc23)c(=O)n1Cc1ccccc1 [Tideglusib]
relative viability ([1]; 0.00017 µM): 1.09 ± 0.032
relative viability ([1]; 0.00051 µM): 1.131 ± 0.0063
relative viability ([1]; 0.00152 µM): 1.12 ± 0.018
relative viability ([1]; 0.00457 µM): 1.12 ± 0.03
relative viability ([1]; 0.01372 µM): 1.14 ± 0.014
relative viability ([1]; 0.04115 µM): 1.11 ± 0.015
relative viability ([1]; 0.1235 µM): 1.12 ± 0.022
relative viability ([1]; 0.3704 µM): 1.12 ± 0.015
relative viability ([1]; 1.111 µM): 1.134 ± 0.01
relative viability ([1]; 3.333 µM): 1.1 ± 0.033
relative viability ([1]; 10 µM): 1.07 ± 0.064
relative viability ([2]; 0.00017 µM): 1.08 ± 0.056
relative viability ([2]; 0.00051 µM): 1.12 ± 0.062
relative viability ([2]; 0.00152 µM): 1.08 ± 0.035
relative viability ([2]; 0.00457 µM): 1.1 ± 0.03
relative viability ([2]; 0.01372 µM): 1.08 ± 0.035
relative viability ([2]; 0.04115 µM): 1.07 ± 0.011
relative viability ([2]; 0.1235 µM): 1.05 ± 0.045
relative viability ([2]; 0.3704 µM): 1.04 ± 0.035
relative viability ([2]; 1.111 µM): 0.984 ± 0.033
relative viability ([2]; 3.333 µM): 0.9812 ± 0.0095
relative viability ([2]; 10 µM): 0.918 ± 0.014
relative viability ([3]; 0.00017 µM): 1.1 ± 0.077
relative viability ([3]; 0.00051 µM): 1.07 ± 0.044
relative viability ([3]; 0.00152 µM): 1.07 ± 0.066
relative viability ([3]; 0.00457 µM): 1.04 ± 0.067
relative viability ([3]; 0.01372 µM): 1.03 ± 0.1
relative viability ([3]; 0.04115 µM): 1 ± 0.094
relative viability ([3]; 0.1235 µM): 0.972 ± 0.053
relative viability ([3]; 0.3704 µM): 0.956 ± 0.088
relative viability ([3]; 1.111 µM): 0.908 ± 0.041
relative viability ([3]; 3.333 µM): 0.933 ± 0.065
relative viability ([3]; 10 µM): 0.861 ± 0.07
relative viability ([4]; 0.00017 µM): 1.11 ± 0.016
relative viability ([4]; 0.00051 µM): 1.112 ± 0.003
relative viability ([4]; 0.00152 µM): 1.1 ± 0.019
relative viability ([4]; 0.00457 µM): 1.114 ± 0.0055
relative viability ([4]; 0.01372 µM): 1.12 ± 0.016
relative viability ([4]; 0.04115 µM): 1.113 ± 0.0041
relative viability ([4]; 0.1235 µM): 1.108 ± 0.0096
relative viability ([4]; 0.3704 µM): 1.1 ± 0.012
relative viability ([4]; 1.111 µM): 1.075 ± 0.0059
relative viability ([4]; 3.333 µM): 1.08 ± 0.04
relative viability ([4]; 10 µM): 1.07 ± 0.029
relative viability ([5]; 0.00017 µM): 0.972 ± 0.03
relative viability ([5]; 0.00051 µM): 0.971 ± 0.02
relative viability ([5]; 0.00152 µM): 0.946 ± 0.031
relative viability ([5]; 0.00457 µM): 0.968 ± 0.016
relative viability ([5]; 0.01372 µM): 0.962 ± 0.029
relative viability ([5]; 0.04115 µM): 0.963 ± 0.016
relative viability ([5]; 0.1235 µM): 0.959 ± 0.044
relative viability ([5]; 0.3704 µM): 0.95 ± 0.02
relative viability ([5]; 1.111 µM): 0.94 ± 0.016
relative viability ([5]; 3.333 µM): 0.924 ± 0.016
relative viability ([5]; 10 µM): 0.878 ± 0.049
relative viability ([6]; 0.00017 µM): 1.08 ± 0.036
relative viability ([6]; 0.00051 µM): 1.12 ± 0.018
relative viability ([6]; 0.00152 µM): 1.13 ± 0.032
relative viability ([6]; 0.00457 µM): 1.12 ± 0.013
relative viability ([6]; 0.01372 µM): 1.14 ± 0.023
relative viability ([6]; 0.04115 µM): 1.13 ± 0.026
relative viability ([6]; 0.1235 µM): 1.11 ± 0.012
relative viability ([6]; 0.3704 µM): 1.1 ± 0.018
relative viability ([6]; 1.111 µM): 1.1 ± 0.019
relative viability ([6]; 3.333 µM): 1.12 ± 0.026
relative viability ([6]; 10 µM): 1.12 ± 0.024
relative viability ([7]; 0.00017 µM): 1.03 ± 0.072
relative viability ([7]; 0.00051 µM): 1.06 ± 0.079
relative viability ([7]; 0.00152 µM): 1.09 ± 0.059
relative viability ([7]; 0.00457 µM): 1.12 ± 0.061
relative viability ([7]; 0.01372 µM): 1.083 ± 0.0073
relative viability ([7]; 0.04115 µM): 1.08 ± 0.067
relative viability ([7]; 0.1235 µM): 1.05 ± 0.016
relative viability ([7]; 0.3704 µM): 1.03 ± 0.058
relative viability ([7]; 1.111 µM): 1.03 ± 0.065
relative viability ([7]; 3.333 µM): 0.977 ± 0.074
relative viability ([7]; 10 µM): 0.923 ± 0.012
relative viability ([8]; 0.00017 µM): 1.02 ± 0.018
relative viability ([8]; 0.00051 µM): 1.01 ± 0.046
relative viability ([8]; 0.00152 µM): 1.02 ± 0.018
relative viability ([8]; 0.00457 µM): 1.01 ± 0.054
relative viability ([8]; 0.01372 µM): 0.994 ± 0.036
relative viability ([8]; 0.04115 µM): 1.02 ± 0.027
relative viability ([8]; 0.1235 µM): 1.02 ± 0.03
relative viability ([8]; 0.3704 µM): 0.993 ± 0.033
relative viability ([8]; 1.111 µM): 1 ± 0.038
relative viability ([8]; 3.333 µM): 1.01 ± 0.031
relative viability ([8]; 10 µM): 0.986 ± 0.027
relative viability ([9]; 0.00017 µM): 1.17 ± 0.021
relative viability ([9]; 0.00051 µM): 1.19 ± 0.047
relative viability ([9]; 0.00152 µM): 1.21 ± 0.12
relative viability ([9]; 0.00457 µM): 1.14 ± 0.09
relative viability ([9]; 0.01372 µM): 1.16 ± 0.098
relative viability ([9]; 0.04115 µM): 1.14 ± 0.074
relative viability ([9]; 0.1235 µM): 1.17 ± 0.023
relative viability ([9]; 0.3704 µM): 1.11 ± 0.12
relative viability ([9]; 1.111 µM): 1.16 ± 0.032
relative viability ([9]; 3.333 µM): 1.09 ± 0.022
relative viability ([9]; 10 µM): 1.1 ± 0.067
relative viability ([10]; 0.00017 µM): 1.1 ± 0.063
relative viability ([10]; 0.00051 µM): 1.09 ± 0.027
relative viability ([10]; 0.00152 µM): 1.09 ± 0.037
relative viability ([10]; 0.00457 µM): 1.09 ± 0.011
relative viability ([10]; 0.01372 µM): 1.09 ± 0.03
relative viability ([10]; 0.04115 µM): 1.1 ± 0.013
relative viability ([10]; 0.1235 µM): 1.08 ± 0.051
relative viability ([10]; 0.3704 µM): 1.05 ± 0.022
relative viability ([10]; 1.111 µM): 1.07 ± 0.024
relative viability ([10]; 3.333 µM): 1.07 ± 0.021
relative viability ([10]; 10 µM): 1.03 ± 0.047
relative viability ([11]; 0.00017 µM): 1.01 ± 0.036
relative viability ([11]; 0.00051 µM): 0.987 ± 0.046
relative viability ([11]; 0.00152 µM): 0.999 ± 0.033
relative viability ([11]; 0.00457 µM): 0.97 ± 0.068
relative viability ([11]; 0.01372 µM): 0.956 ± 0.054
relative viability ([11]; 0.04115 µM): 0.944 ± 0.033
relative viability ([11]; 0.1235 µM): 0.949 ± 0.051
relative viability ([11]; 0.3704 µM): 0.953 ± 0.067
relative viability ([11]; 1.111 µM): 0.969 ± 0.071
relative viability ([11]; 3.333 µM): 0.944 ± 0.058
relative viability ([11]; 10 µM): 0.891 ± 0.067
relative viability ([12]; 0.00017 µM): 1.1 ± 0.058
relative viability ([12]; 0.00051 µM): 1.12 ± 0.051
relative viability ([12]; 0.00152 µM): 1.08 ± 0.035
relative viability ([12]; 0.00457 µM): 1.1 ± 0.052
relative viability ([12]; 0.01372 µM): 1.08 ± 0.057
relative viability ([12]; 0.04115 µM): 1.08 ± 0.053
relative viability ([12]; 0.1235 µM): 1.08 ± 0.059
relative viability ([12]; 0.3704 µM): 1.04 ± 0.046
relative viability ([12]; 1.111 µM): 1.07 ± 0.054
relative viability ([12]; 3.333 µM): 1.04 ± 0.037
relative viability ([12]; 10 µM): 1.02 ± 0.038
